Assay results reported in US20220370463A1, “STABILIZED C-FMS INTRACELLULAR FRAGMENTS (FICD) PROMOTE OSTEOCLAST DIFFERENTIATION AND ARTHRITIC BONE EROSION” (New York Society for the Relief of the Ruptured and …, priority 2019, published 2022).

Experiments:
L-FICD generation = test: Screening of 53 protease inhibitors from a protease library for L-FICD generation; assay type: cell-based
Description: To identify the protease(s) responsible for cleavage of H-FICD in an unbiased manner, we performed a screening of 53 protease inhibitors using a protease library. The best hits associated with the inhibition of L-FICD generation were MDL28170 and PD150606—two calpain inhibitors—along with MMP inhibitors and γ-secretase inhibitors. Calpain is the family of calcium-dependent cytosolic cysteine proteases expressed ubiquitously in mammals and many other organisms (Pfaff, M., Du, X. & Ginsberg, M. H. Calpain cleavage of integrin beta cytoplasmic domains. FEBS Lett 460, 17-22 (1999)), and calpain-dependent cleavages contribute to modulating various cellular functions such as apoptosis, proliferation and migration (Deshpande, R. V. et al. Calpain expression in lymphoid cells. Increased mRNA and protein levels after cell activation. J Biol Chem 270, 2497-2505 (1995). Svensson, L. et al. Calpain 2 controls turnover of LFA-1 adhesions on migrating T lymphocytes. PloS one 5, e15090, doi:10.1371/journal.pone.0015090 (2010).). […] Since calpain is activated by calcium, we examined if calcium signaling could compensate for M-CSF signaling to generate FICDs. In the absence of c-FMS signaling, calcium signaling was able to promote the cleavage of […] in the nucleus, and […] reversed the effect of calcium signaling on L-FICD processing (FIG.10C). […]

[1] = tested on: K/BxN serum-induced arthritis; test: K/BxN serum transfer induced arthritis model; assay type: in vivo, C57BL/6J mice
Description: (a and b) BMDMs from WT and FICDtg^M mice was stimulated with RANKL (50 ng/ml) at the indicated time. (a) RT-qPCR of Nfatc1 mRNA normalized relative to Hprt mRNA. (b) Immunoblot with anti NFATc1, HA, or α-tubulin antibodies. (c and d) BMDMs from Csf1r^f/+ Mx1-Cre mice were transduced by lentiviruses encoding FMS^wt, or FMS^mut and then cultured with M-CSF and RANKL. (c) Immunoblot of whole lysate with anti-NFATc1 antibody. α-tubulin was used as a control. […] The intensity of NFATc1 in FMS^mut was set as 100%. (d) Expression mRNA level of NFATc1. (e) Immunoblot of whole cell lysates with phospho-eIF4E antibodies. HA-tagged FICD was detected by HA-antibody. α-tubulin was used as a control. […] (f and g) Human CD14+ cells were treated with CGP57380 at the indicated doses for one hour and cultured with RANKL for one day. […] (g) Nfatc1 mRNA expression was measured by qPCR relative to HPRT. A DMSO-treated RANKL condition was set as 100%. (h) Osteoclastogenesis assay. BMDMs from WT and FICDtg^M mice were treated with CPG57380 at the indicated doses and then cultured with RANKL for three days. […] Scale bar: 100 μm. (i) Cell viability assay. BMDMs WT and FICDtg^M mice was stimulated with CPG57380 at the indicated doses for one day. (j-n) K/BxN serum transfer induced arthritis model. 9-week old male C57BL/6J mice were received K/BxN serum on day 0 and day 2. Vehicle or CPG57380 (40 mg/kg) was administrated intraperitoneally (i.p) at day 2 until day 13 (n=5-6). (j) Schematic diagram showing experimental design. (k) Ankle thickness. (1) Arthritis score. (m) Representative images of TRAP stained histological sections from calcaneocuboid and tarsometatarsal joints. (n) Histomorphometry analysis of tarsal bones. N.OC/B.Pm; Osteoclast number/bone parameter. OC.S/BS; osteoclast surface/bone surface. ES/BS; Eroded surface/bone surface (n=5-6). All data are shown as mean±SEM. *, p<0.05 by One-way ANOVA with a post hoc Tukey test (a, f-i,k,l) or two-tailed, unpaired t-test (d,e,n). Data represent at least three experiments.
FIGS. 11A-11E show calpain regulates FICD generation. (A-E) K/BxN serum transfer induced arthritis model. 8-week old male C57BL/6J mice were received K/BxN serum on day 0 and day 2. Vehicle or MDL28170 (10 mg/kg) was administrated intraperitoneally (i.p) at day 2 until day 11 (n=10). (A) K/BxN Experimental design. (B) Arthritis score. (C) Ankle thickness. (D) Representative images of TRAP stained histological sections from calcaneocuboid and tarsometatarsal joints. (E) Histomorphometry analysis of tarsal bones. N.OC/B.Pm; Osteoclast number/bone parameter. […]
Histomorphometry experiment was performed with tarsal bone of vehicle or MDL28170 treated mice. […] The quantification of osteoclast was performed in paraffin embedded tissues that were stained for TRAP and Methyl green (Vector Laboratories). […]

[2] = CGP57380 40 mg/kg i.p. day 2 until day 13
[3] = MDL28170 10 mg/kg i.p. day 2 until day 11

MDL28170
inhibition of L-FICD generation (hit in screening) (L-FICD generation): best hits
severity of arthritis: ankle joint thickness [1, 2]: not affected
severity of arthritis: clinical score [1, 2]: not affected
severity of arthritis: ankle joint thickness [1, 3]: attenuated
severity of arthritis: clinical score [1, 3]: attenuated
